In paper PMC5978685, “Design, Synthesis, and Evaluation of Novel Immunomodulatory Small Molecules Targeting the CD40–CD154 Costimulatory Protein-Protein Interaction” (Molecules : A Journal of Synthetic Chemistry and Natural …, 2018):
Read-outs that look alike come from different tables or passages of the source.

Tests used:
[1] = molecular target: T1, OX40–OX40L (Homo sapiens, UniProt P23510); experiment: cell-free ELISA-type binding inhibition assay, OX40–OX40L
T1 construct: purchased Enzo Life Sciences
T1 sequence (P23510 51-183 limits assumed): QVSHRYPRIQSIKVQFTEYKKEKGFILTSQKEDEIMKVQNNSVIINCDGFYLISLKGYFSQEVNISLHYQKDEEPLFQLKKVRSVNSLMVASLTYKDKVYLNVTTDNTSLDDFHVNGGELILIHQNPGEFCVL
Description: (§1) In parallel with the CD40–CD154 assay, the ability of these compounds to inhibit other TNFSFR–TNFSF PPIs, including OX40–OX40L, BAFFR–BAFF, and TNF-R1–TNF-α, was also assessed (Figure 3B–D).
(§2) Binding inhibition assays were performed in a 96-well cell-free format as described before. Briefly, microtiter plates (Nunc F Maxisorp, 96-well; Thermo Fisher Scientific, Waltham, MA, USA) were coated overnight at 4 °C with 100 μL/well of Fc-conjugated receptors diluted in PBS pH 7.2. This was followed by blocking with 200 μL/well of blocking solution (PBS pH 7.2, 0.05% Tween-20, 1% BSA) for 1 h at RT. Then, plates were washed twice using washing solution (PBS pH 7.4, 0.05% Tween-20) and tapped dry before the addition of the appropriate FLAG tagged ligands along with different concentrations of tested dyes diluted in binding buffer (100 mM HEPES, 0.005% BSA pH 7.2) to give a total volume of 100 μL/well. After 1 h incubation, three washes were conducted, and anti-FLAG HRP conjugate was used to detect the bound FLAG-tagged ligand. Plates were washed four times before the addition of 120 μL/well of HRP substrate TMB (3,3′,5,5′-tetramethylbenzidine) and kept in the dark for up to 15 min. The reaction was stopped using 30 μL of 1M H2SO4, and the absorbance value was read at 450 nm. The concentrations of receptors used were 0.3 μg/mL for CD40, TNF-R1, and BAFFR; 0.6 μg/mL for OX40. The concentrations of the ligands were fixed at 0.02 μg/mL for CD154 and TNF-α, 0.06 μg/mL for OX40L, and 0.03 μg/mL for BAFF. These values were selected following preliminary testing to optimize response (i.e., to produce a high-enough signal at conditions close to half-maximal response, EC50). […] To verify that inhibition is not due to colloidal aggregation, CD40 binding inhibition was also measured in the presence of the non-ionic detergent Triton-X 100 (0.01%), as recommended for the detection of such effects.
(§3) All binding inhibition and cell assays were tested in duplicate or triplicate per plates, and assays were performed as at least three independent experiments. As before, binding and cytotoxicity data were converted to percent inhibition and fitted with standard log inhibitor vs. normalized response models using nonlinear regression in GraphPad Prism (GraphPad, La Jolla, CA, USA) to establish half-maximal (median) inhibitory concentration (IC50) or median lethal concentration (LC50) values. Cell assay data were fitted with a similar model that also allowed for a variable slope using the log inhibitor vs. normalized response (variable slope) model from Prism with a Hill slope (n) shared across all compounds. Cell assays and draining lymph node data were analyzed by one-way repeated-measures analysis of variance (ANOVA) followed by Dunnett’s multiple comparison test as a post hoc test for individual differences using GraphPad Prism and a significance level of p < 0.05 for all comparisons.
(§4) Data are (counterclockwise) for human CD40–CD154 (CD40L) (A); OX40–OX40L (B); BAFFR–BAFF (C); and TNF-R1–TNFα (D) and were fitted with standard binding curves. Data are average ± SD (normalized to percent binding) for n = 3 independent experiments with duplicates for each condition.

[2] = molecular target: T2, CD40–CD154 (CD40L) (Homo sapiens, UniProt P29965); experiment: cell-free ELISA-type binding inhibition assay, CD40–CD154; conditions: for selectivity toward CD40–CD154 against all other PPIs tested: vs OX40–OX40L, BAFFR–BAFF, TNF-R1–TNF-α
T2 construct: purchased Enzo Life Sciences
T2 sequence (P29965 116-261 limits assumed): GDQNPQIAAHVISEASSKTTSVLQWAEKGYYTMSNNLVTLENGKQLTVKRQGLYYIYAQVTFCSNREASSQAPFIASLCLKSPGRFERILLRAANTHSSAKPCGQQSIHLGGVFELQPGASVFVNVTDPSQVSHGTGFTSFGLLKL
From the text: As a first assessment, the CD40–CD154 inhibitory activity of compounds 6–19 (Figure 2, Table 1) was quantified using a cell-free in vitro binding inhibition assay as described before. Data fitted with typical sigmoidal concentration dependence curves (log inhibitor versus response model in GraphPad Prism, Hill slope n = 1) are summarized in Figure 3A. […] Polymolecular conglomeration and/or aggregation is often a cause of promiscuous inhibition in screening assays. Therefore, just as in our previous work, we checked for this, and we confirmed for several compounds that inhibition due to aggregation is not the case by retesting inhibitory activity in the presence of a non-ionic detergent (Triton-X 100, 0.01%) as recommended for the detection of such effects.
as §2, §3, §4

[3] = molecular target: T3, CD40 (Homo sapiens, UniProt P25942); experiment: protein thermal shift (differential scanning fluorimetry), CD40; assay type: binding; conditions: 25 μM of 11, 10 μM of DRI-C21045; CD40-Fc 0.1 mg/mL
T3 construct: purchased Enzo Life Sciences
From the text: (§5) A protein thermal shift assay (differential scanning fluorimetry, also known as ThermoFluor assay) was used to establish whether our small-molecule probes bind to CD40 or CD154 (CD40L). This technique quantifies the shift in protein stability due to ligand binding via use of a dye whose fluorescence increases when exposed to hydrophobic surfaces, which happens as the protein unfolds exposing its normally buried hydrophobic core residues. […]
(§6) This assay was used following standard protocols as described in the literature to establish whether CD154 or CD40 is the binding partner of our compounds. Sypro orange (ThermoFisher; Waltham, MA, USA) was used as the fluorescence detection dye with an RT-PCR machine (StepOnePlus, Applied Biosystems (Foster City, CA, USA); detection on ROX channel, 575/602 nm) programmed to equilibrate samples at 25 °C for 90 s and then increase temperature to 99 °C by 0.4 °C every 24 s before taking a reading. Melting point of the protein is considered the lowest point of the first derivative plot, as calculated by the software included with the RT-PCR machine. Optimal concentrations were determined by performing a series of preliminary scans at various concentrations of protein, compound, and dye (CD154 0.05 mg/mL, CD40-Fc 0.1 mg/mL, Sypro orange 4×, 100 mM HEPES buffer, 10 μM of DRI-C21045 and 25 μM of 11). […]

[4] = molecular target: T4, CD154 (CD40L) (Homo sapiens, UniProt P29965); experiment: protein thermal shift (differential scanning fluorimetry), CD154; assay type: binding; conditions: 25 μM of 11, 10 μM of DRI-C21045; CD154 0.05 mg/mL
T4 construct: purchased Peprotech
T4 sequence (P29965 113-261 limits assumed): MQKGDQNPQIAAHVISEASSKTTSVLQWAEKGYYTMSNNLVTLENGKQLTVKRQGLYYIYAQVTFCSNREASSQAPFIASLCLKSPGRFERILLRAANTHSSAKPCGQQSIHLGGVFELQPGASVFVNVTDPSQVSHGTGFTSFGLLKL
From the text: as §5, §6

[5] = molecular target: T5, BAFFR–BAFF (Homo sapiens, UniProt Q9Y275); experiment: cell-free ELISA-type binding inhibition assay, BAFFR–BAFF
T5 construct: purchased Enzo Life Sciences
Description: as §1, §2, §3, §4

[6] = molecular target: T6, TNF-R1–TNFα (Homo sapiens, UniProt P01375); experiment: cell-free ELISA-type binding inhibition assay, TNF-R1–TNFα; conditions: cell-free TNF-R1–TNFα binding inhibition; read-out: TNF IC50
T6 construct: purchased Enzo Life Sciences
Description: as §1, §2, §3, §4

[7] = system: CD154-induced NF-κB activation in CD40 sensor cells; experiment: CD40 sensor cell assay (HEK Blue CD40, SEAP reporter); assay type: cell-based, human
From the text: (§7) As further confirmation of the inhibitory activity of our compounds, a cell-based assay was used with sensor cells (HEK Blue CD40) containing a secreted embryonic alkaline phosphatase (SEAP) reporter gene under the control of a promoter fused to a NF-κB binding site and transfected with CD40. […] For all tested compounds, the corresponding IC50 values are higher than those determined in the cell-free binding inhibition assay (Table 1) representing a loss of activity which is likely due to non-specific binding on account of the presence of proteins and cells in the assay, as well as hydrophobicity-related problems. Cytotoxicities were also evaluated in these same cells and at the same concentrations using a standard MTS assay to ensure that effects are present at non-toxic concentration levels.
CD40 expressing NF-κB sensor cells (HEK Blue, InvivoGen, San Diego, CA, USA) were used to assess the ability of the present compounds to block CD154-induced activation as described before. Briefly, cells were maintained in DMEM at 80% confluence for each experiment. Cells were trypsinized and re-suspended in the same medium without FBS and seeded on 96-well microtiter plates at a density of 50,000 cells/well in the absence and presence of various concentrations of compounds diluted in the same media. For ligand mediated stimulation, a concentration of recombinant human CD154 (100 ng/mL) found to induce an optimal response was maintained in the wells for this purpose. After 24 h of incubation at 37 °C, 40 μL supernatant of each well were taken and added to another 96-well microtiter plate containing 160 μL/well of QUANTI-Blue (InvivoGen). The level of SEAP was determined after 1 h of incubation at 37 °C by reading at 650 nm using a spectrophotometer. A monoclonal anti-human CD154 antibody (clone 40804, R&D Systems, Minneapolis, MN, USA) was used as a positive control at 240 nM concentration.
as §3
Figure 5 Inhibition of CD154-induced NF-κB activation in CD40 sensor cells by compounds 6, 14, 15, and 18 in a concentration-dependent manner. Tartrazine (TZ) and an anti-CD154 antibody (mAb; single dose, 240 nM) were included as negative and positive controls, respectively. Data are average ± SD (normalized to CD154-activated cells alone) for n = 2 independent experiments with duplicates for each condition.

[8] = solubilization in the in vivo dosing vehicle; assay type: physicochemical; conditions: vehicle 20% HPβCD
[9] = system: HEK Blue cells; experiment: MTS cytotoxicity assay in HEK Blue cells; assay type: cell-based; conditions: LC50 (MTS) / NF-κB IC50 in sensor cells
From the text: as §7
(§8) For the MTS assay, HEK Blue cells were cultured and prepared in the same manner as in the CD40 sensor assay. Then cells were added to a 96-well microtiter plate at a density of 50,000 cells/well in the absence or presence of various concentrations of compounds diluted in the same media, without the addition of CD154. The plate was incubated at 37 °C for 24 h. 20 µL per well of MTS, 3-(4,5-dimethylthiazol-2-yl)-5-(3-carboxymethoxyphenyl)-2-(4-sulfophenyl)-2H-tetrazolium, (Promega, Madison, WI, USA) was added to the culture after treatments, and cells were incubated at 37 °C for 4 h. Formazan levels were measured using a plate reader at 490 nm.
as §3

[10] = MTS cytotoxicity assay in HEK Blue cells; assay type: cell-based; conditions: human, HEK Blue CD40 sensor cells; HEK Blue cells, 24 h; read-out: LC50 (cytotoxicity, MTS)
From the text: as §7, §8, §3

[11] = molecular target: T2, CD40–CD154 (CD40L); parameters: method as in PMID 29024591; conditions: read-out: CD40–CD154 IC50 (previous work); cited from earlier work
[12] = cell-free CD40–CD154 binding inhibition, read-out: CD40 IC50

T6 sequence (P01375 85-233 limits assumed): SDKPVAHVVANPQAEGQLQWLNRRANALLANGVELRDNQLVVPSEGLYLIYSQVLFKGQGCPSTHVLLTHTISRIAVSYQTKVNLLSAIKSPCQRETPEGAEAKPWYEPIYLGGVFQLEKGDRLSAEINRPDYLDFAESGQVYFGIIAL
T3 sequence (P25942 21-277): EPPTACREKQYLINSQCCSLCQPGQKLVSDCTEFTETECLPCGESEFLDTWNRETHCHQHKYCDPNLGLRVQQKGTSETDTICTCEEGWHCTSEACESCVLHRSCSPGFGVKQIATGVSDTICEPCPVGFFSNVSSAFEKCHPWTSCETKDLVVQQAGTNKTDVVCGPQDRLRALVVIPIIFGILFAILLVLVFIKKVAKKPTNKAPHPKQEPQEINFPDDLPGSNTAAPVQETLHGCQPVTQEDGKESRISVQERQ
T5 sequence (Q9Y275 134-285 limits assumed): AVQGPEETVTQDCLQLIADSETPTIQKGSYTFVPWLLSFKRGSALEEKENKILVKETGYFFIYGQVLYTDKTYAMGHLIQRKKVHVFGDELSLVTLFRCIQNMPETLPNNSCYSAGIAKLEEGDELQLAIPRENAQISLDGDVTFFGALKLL

Row | SMILES | IC50 [1] | IC50 [2, 12] | IC50 ([2]; cell-free binding inhibition assay, read-out: CD40–CD154 IC50) | shift in melting temperature (Tm) of CD40 [3] | shift in melting temperature (Tm) of CD154 [4] | IC50 [5] | IC50 [6] | selectivity toward CD40–CD154 against all other PPIs tested [2] | selectivity toward CD40–CD154 against all other PPIs tested ([2]; listed as DRI-C21091) | inhibition of CD154-induced NF-κB activation (qualitative) [7] | IC50 ([7]; Homo sapiens, CD154 100 ng/mL, 24 h) | solubility in the vehicle for in vivo dosing [8] | therapeutic index, TI = LC50/IC50 [9] | CC50 at 24 h [10] | IC50 [11]
1 | COC(=O)c1ccc(C(=O)Nc2ccc(-c3ccc(C(=O)Nc4ccc(S(=O)(=O)O)c5cccc(S(=O)(=O)O)c45)cc3)cc2)cc1 [Compound 11, 4-(4′-(4-(Methoxycarbonyl)benzamido)-[1,1′-biphenyl]-4-carboxamido)naphthalene-1,5-disulfonic acid] | 120 µM | 60.1 µM | 60 µM | not for CD40 | caused clear shifts | 540 µM | 456 µM | – | – | – | – | – | – | – | –
2 | O=C(Nc1ccc(-c2ccc(C(=O)Nc3cccc4cccc(S(=O)(=O)O)c34)cc2)cc1)c1ccc(-c2ccc([N+](=O)[O-])cc2)cc1 [Compound 14, 8-(4′-(4′-Nitro-[1,1′-biphenyl]-4-carboxamido)-[1,1′-biphenyl]-4-carboxamido)naphthalene-1-sulfonic acid] | 6.88 µM | 0.02 µM | – | – | – | 0.784 µM | 70.3 µM | > 30 fold | more than thirty-fold | concentration-dependent inhibition | 11.1 µM | could not be sufficiently solubilized in the vehicle | 5 | 55.6 µM | –
3 | COC(=O)c1ccc(C(=O)Nc2ccc(-c3ccc(C(=O)Nc4cccc5cccc(S(=O)(=O)O)c45)cc3)cc2)cc1 [DRI-C21045, reference compound] | – | – | – | not for CD40 | caused clear shifts | – | – | – | – | – | – | – | – | – | 0.17 µM
